Experimental data as given in patent US8465985B2, “Fluorescent probe” (The University of Tokyo, priority 2007, dated 2013).

Test: Spectral change of Compound 5 in association with pH change (absorption and fluorescence spectra)
Type: physicochemical
Experimental: For all the samples, measurements were performed in a 1:1 mixed solvent of 100 mM sodium phosphate buffered solution and acetonitrile (containing 0.1% or less of DMSO as an auxiliary solvent).
In the case of Compound 5, for example, the tricarbocyanine fluorophore is a pH-sensitive FRET receptor, the dicarbocyanine fluorophore is an FRET donor, and the compound has a property that when the nitrogen atom binding to the methine chain of the tricarbocyanine fluorophore is protonated, the peak in the excitation spectrum shifts from around 660 nm to the longer wavelength side in connection with decrease of electron donating ability. […] Namely, by dissolving Compound 5 in a test sample, performing excitation with a light of 640 nm, and measuring ratio of fluorescence intensities at 660 nm and 750 nm upon excitation, it becomes possible to detect pH by the ratio method. Compound 5 is especially useful as a pH fluorescent probe for measuring pH in live cells or live tissues, in particular, in deep part tissues, under a physiological condition.
In a 1:1 mixed solution of 100 mmol/L phosphate buffer (pH 1.2, 2.1, 3.3, 3.9, 5.0, 6.0, 6.8) and acetonitrile (containing 0.1% or less of DMSO as an auxiliary solvent), absorption spectra and fluorescence spectra (excitation wavelength: 640 nm) of Compound 5 were measured. It can be understood that with elevation of pH, the absorbance around 650 nm increased, and the absorption spectrum changed. Moreover, it can also be understood that in the fluorescence spectrum, with elevation of pH, the fluorescence intensity decreased around 660 nm, and increased around 750 nm. Therefore, pH change can be accurately measured by using the ratio method based on one-wavelength excitation/ two-wavelength fluorescence measurement. […] The fluorescence intensities at 660 nm and 750 nm linearly change from pH 4 to 6, and accordingly, pH of this range can be measured by using Compound 5.

[1] = excitation 640 nm, 1:1 phosphate buffer (pH 1.2-6.8) and acetonitrile

**Q.** With `CN1/C(=C/C=C2\CCCC(/C=C/C3=[N+](C)c4ccccc4C3(C)C)=C2NCCCCCC(=O)N[C@H]2CC[C@H](NC(=O)CC[N+]3=C(/C=C/C=C/C=C4/N(CCC(=O)O)c5ccccc5C4(C)C)C(C)(C)c4ccccc43)CC2)C(C)(C)c2ccccc21` [Compound 5] as the molecule, how does the “change of absorbance around 650 nm with elevation of pH” value (1:1 100 mmol/L phosphate buffer (pH 1.2-6.8) and acetonitrile) read?
**A.** increased

**Q.** And the “change of fluorescence intensity around 660 nm with elevation of pH” value [1]?
**A.** decreased

**Q.** And the “change of fluorescence intensity around 750 nm with elevation of pH” value [1]?
**A.** increased

**Q.** What about the “fluorescence wavelength of the tricarbocyanine fluorophore (FRET receptor)” value (excitation light of 640 nm, nitrogen atom not protonated) of the same molecule?
**A.** around 750 nm

**Q.** And the “fluorescence wavelength peak of the dicarbocyanine fluorophore (FRET donor)” value (excitation light of 640 nm, nitrogen atom protonated)?
**A.** around 660 nm
